Laboratory results as given in patent US7732604B2, “Triazolopyrazine derivatives” (Pfizer Inc., priority 2006, dated 2010).
Structures can show the parent of a compound that is named as a salt.

What follows are compounds tested against T1, HGFR (Homo sapiens, UniProt P08581) (assay: HGFR continuous-coupled spectrophotometric assay (tyrosine kinase activity on Met-2 substrate peptide)). Settings: HGFR 50 nM, Met-2 peptide 0.5 mM, ATP 300 μM, 37° C., absorbance 340 nm; read-out: Ki.
T1 construct: purchased Upstate 14-526
T1 sequence (P08581 974-1390 limits assumed): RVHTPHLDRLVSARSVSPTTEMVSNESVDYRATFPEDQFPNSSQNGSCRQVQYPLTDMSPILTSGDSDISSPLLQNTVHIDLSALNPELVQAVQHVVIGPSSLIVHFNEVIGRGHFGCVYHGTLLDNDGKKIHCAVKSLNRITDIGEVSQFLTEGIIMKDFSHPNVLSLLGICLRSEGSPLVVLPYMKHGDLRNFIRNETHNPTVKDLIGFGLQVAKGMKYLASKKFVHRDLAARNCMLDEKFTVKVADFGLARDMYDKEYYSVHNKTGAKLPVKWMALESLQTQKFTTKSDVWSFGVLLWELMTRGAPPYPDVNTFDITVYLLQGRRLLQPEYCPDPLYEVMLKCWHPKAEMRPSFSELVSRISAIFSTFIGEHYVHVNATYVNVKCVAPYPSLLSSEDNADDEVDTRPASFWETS
Type: biochemical

SMILES	Ki [nM]
CC(c1ccc2c(c1)OCCO2)n1nnc2ncc(-c3cnn(C)c3)nc21 (stereo in doubt) [Example 60, 1-[(S)-1-(2,3-Dihydro-benzo[1,4]dioxin-6-yl)-ethyl]-6-(1-methyl-1H-pyrazol-4-yl)-1H-[1,2,3]triazolo[4,5-b]pyrazine]	30
CC(CO)Nc1cnc2nnn(Cc3ccc4ncccc4c3)c2n1 (stereo in doubt) [Example 120, (2R)-2-{[1-(quino-lin-6-yl-methyl)-1H-[1,2,3]tri-azolo[4,5-b]pyra-zin-6-yl]ami-no}propan-1-ol]	41
N#CC1CCN(C2CCN(c3cnc4nnn(Cc5ccc6ncccc6c5)c4n3)C2)CC1 (stereo in doubt) [Example 148, 1-{(3R)-1-[1-(quino-lin-6-yl-methyl)-1H-[1,2,3]tri-azolo[4,5-b]pyra-zin-6-yl]pyrro-lidin-3-yl}pipe-ridine-4-carbo-nitrile]	30
OC1CCN(C2CCN(c3cnc4nnn(Cc5ccc6ncccc6c5)c4n3)C2)CC1 (stereo in doubt) [Example 170, 1-[(3R)-1-[1-(quino-lin-6-yl-methyl)-1H-[1,2,3]tri-azolo[4,5-b]pyra-zin-6-yl]pyrro-lidin-3-yl}pipe-ridin-4-ol]	21
CC(c1ccc2ncccc2c1)n1nnc2ncc(Br)nc21 (stereo in doubt) [Example 212, 6-[(S)-1-(6-Bromo-[1,2,3]triazolo [4,5-b]pyrazin-1-yl)-ethyl]-quinoline]	42
c1cnc2ccc(Cn3nnc4ncc(-c5cnn(C6CNC6)c5)nc43)cc2c1 [Example 1, 6-((6-(1-(azetidin-3-yl)-1H-pyrazol-4-yl)-1H-[1,2,3]-triazolo[4,5-b]pyrazin-1-yl)methyl)-quinoline]	8
NCCn1cc(-c2cnc3nnn(Cc4ccc5ncccc5c4)c3n2)cn1 [Example 2, 2-(4-(3-(quinolin-6-ylmethyl)-3H-[1,2,3]triazolo[4,5-b]pyrazin-5-yl)-1H-pyrazol-1-yl)ethanamine]	11
c1cnc2ccc(Cn3nnc4ncc(-c5cnn(CC6CCNCC6)c5)nc43)cc2c1 [Example 4]	69
CCOC(=O)c1cnn(-c2cnc3nnn(Cc4ccc5ncccc5c4)c3n2)c1 [Example 14, ethyl 1-(3-(quinolin-6-ylmethyl)-3H-[1,2,3]triazolo[4,5-b]pyrazin-5-yl)-1H-pyrazole-4-carboxylate]	40
Cc1cn(-c2cnc3nnn(Cc4ccc5ncccc5c4)c3n2)cn1 [Example 16, 6-((6-(4-methyl-1H-imidazol-1-yl)-1H-[1,2,3]triazolo[4,5-b]pyrazin-1-yl)methyl)-quinoline]	3
c1cnc2ccc(Cn3nnc4ncc(-n5cccn5)nc43)cc2c1 [Example 22, 6-((6-(1H-pyrazol-1-yl)-1H-[1,2,3]triazolo[4,5-b]pyrazin-1-yl)methyl)-quinoline]	12
CN(C)C1CCN(c2cnc3nnn(Cc4ccc5ncccc5c4)c3n2)CC1 [Example 27]	45
OC1CCN(c2cnc3nnn(Cc4ccc5ncccc5c4)c3n2)CC1 [Example 28, 1-(3-(quinolin-6-ylmethyl)-3H-[1,2,3]triazolo[4,5-b]pyrazin-5-yl)piperidin-4-ol]	15
CN(C)[C@H]1CCN(c2cnc3nnn(Cc4ccc5ncccc5c4)c3n2)C1 [Example 29, (S)-N,N-dimethyl-1-(3-(quinolin-6-ylmethyl)-3H-[1,2,3]triazolo[4,5-b]pyrazin-5-yl)pyrrolidin-3-amine]	24
CN(C)[C@@H]1CCN(c2cnc3nnn(Cc4ccc5ncccc5c4)c3n2)C1 [Example 30, (R)-N,N-dimethyl-1-(3-(quinolin-6-ylmethyl)-3H-[1,2,3]triazolo[4,5-b]pyrazin-5-yl)pyrrolidin-3-amine]	8
N[C@@H]1CCCN(c2cnc3nnn(Cc4ccc5ncccc5c4)c3n2)C1 [Example 31, (R)-1-(3-(quinolin-6-ylmethyl)-3H-[1,2,3]triazolo[4,5-b]pyrazin-5-yl)piperidin-3-amine dihydrochloride]	59
N[C@H]1CCCN(c2cnc3nnn(Cc4ccc5ncccc5c4)c3n2)C1 [Example 32, (S)-1-(3-(quinolin-6-ylmethyl)-3H-[1,2,3]triazolo[4,5-b]pyrazin-5-yl)piperidin-3-amine dihydrochloride]	69
c1cnc2ccc(Cn3nnc4ncc(N5CCNCC5)nc43)cc2c1 [Example 33, 6-((6-(piperazin-1-yl)-1H-[1,2,3]triazolo[4,5-b]pyrazin-1-yl)methyl)quinoline]	10
CC(C)(C)OC(=O)NC1CCN(c2cnc3nnn(Cc4ccc5ncccc5c4)c3n2)CC1 [Example 34, tert-butyl 1-(3-(quinolin-6-ylmethyl)-3H-[1,2,3]triazolo[4,5-b]pyrazin-5-yl)piperidin-4-ylcarbamate]	33
Brc1cnc2nnn(Cc3ccc4c(c3)CCO4)c2n1 [Example 41, 6-Bromo-1-(2,3-dihydro-benzofuran-5-ylmethyl)-1H-[1,2,3]triazolo[4,5-b]pyrazine]	36
N[C@@H]1CCN(c2cnc3nnn(Cc4ccc5c(c4)CCO5)c3n2)C1 [Example 42, (R)-1-[3-(2,3-Dihydro-benzofuran-5-ylmethyl)-3H-[1,2,3]triazolo[4,5-b]pyrazin-5-yl]-pyrrolidin-3-ylamine]	80
CN(C)[C@@H]1CCN(c2cnc3nnn(Cc4ccc5c(c4)CCO5)c3n2)C1 [Example 43, {(R)-1-[3-(2,3-Dihydro-benzofuran-5-ylmethyl)-3H-[1,2,3]triazolo[4,5-b]pyrazin-5-yl]-pyrrolidin-3-yl}-dimethyl-amine]	45
CCc1cnc2nnn(Cc3ccc4ncccc4c3)c2n1 [Example 52, 6-(6-Ethyl-[1,2,3]triazolo[4,5-b]pyrazin-1-ylmethyl)-quinoline]	88
CC(c1ccc2c(c1)OCCO2)n1nnc2ncc(Br)nc21 (stereo not shown) [Example 54, 6-Bromo-1-[1-(2,3-dihydro-benzo[1,4]dioxin-6-yl)-ethyl]-1H-[1,2,3]tiazolo[4,5-b]pyrazine]	42
CC(c1ccc2c(c1)OCCO2)n1nnc2ncc(-c3cnn(C)c3)nc21 (stereo not shown) [Example 56, 1-[1-(2,3-Dihydro-benzo[1,4]dioxin-6-yl)-ethyl]-6-(1-methyl-1H-pyrazol-4-yl)-1H-[1,2,3]triazolo[4,5-b]pyrazine]	37

The next lines start with the values.

Ki [nM]	SMILES
11	COCCn1cc(-c2cnc3nnn(Cc4ccc5ncccc5c4)c3n2)cn1 [Example 6, 6-((6-(1-(2-methoxyethyl)-1H-pyrazol-4-yl)-1H-[1,2,3]triazolo[4,5-b]pyrazin-1-yl)methyl)-quinoline]
4	O=C(NC1CCNCC1)c1ccc(-c2cnc3nnn(Cc4ccc5ncccc5c4)c3n2)cc1 [Example 10, N-(piperidin-4-yl)-4-(3-(quinolin-6-ylmethyl)-3H-[1,2,3]triazolo[4,5-b]pyrazin-5-yl)benzamide]
4	NCCNC(=O)c1ccc(-c2cnc3nnn(Cc4ccc5ncccc5c4)c3n2)cc1 [Example 11, N-(2-aminoethyl)-4-(3-(quinolin-6-ylmethyl)-3H-[1,2,3]triazolo[4,5-b]pyrazin-5-yl)benzamide]
38	CN(C)CCN(C)C(=O)c1ccc(-c2cnc3nnn(Cc4ccc5ncccc5c4)c3n2)cc1 [Example 12, N-(2-(dimethylamino)ethyl)-N-methyl-4-(3-(quinolin-6-ylmethyl)-3H-[1,2,3]triazolo[4,5-b]pyrazin-5-yl)benzamide]
3	CN(C)CCNC(=O)c1ccc(-c2cnc3nnn(Cc4ccc5ncccc5c4)c3n2)cc1 [Example 13, N-(2-(dimethylamino)ethyl)-4-(3-(quinolin-6-ylmethyl)-3H-[1,2,3]triazolo[4,5-b]pyrazin-5-yl)benzamide]
46	O=C(c1ccc(-c2cnc3nnn(Cc4ccc5ncccc5c4)c3n2)cc1)N1CCOCC1 [Example 17, morpholino(4-(3-(quinolin-6-ylmethyl)-3H-[1,2,3]triazolo[4,5-b]pyrazin-5-yl)phenyl)-methanone]
5	CNC(=O)c1cccc(-c2cnc3nnn(Cc4ccc5ncccc5c4)c3n2)c1 [Example 18, N-methyl-3-(3-(quinolin-6-ylmethyl)-3H-[1,2,3]triazolo[4,5-b]pyrazin-5-yl)benzamide]
3	CNC(=O)c1ccc(-c2cnc3nnn(Cc4ccc5ncccc5c4)c3n2)cc1 [Example 19, N-methyl-4-(3-(quinolin-6-ylmethyl)-3H-[1,2,3]triazolo[4,5-b]pyrazin-5-yl)benzamide]
3	COc1cccc(-c2cnc3nnn(Cc4ccc5ncccc5c4)c3n2)c1 [Example 20, 6-((6-(3-methoxyphenyl)-1H-[1,2,3]triazolo[4,5-b]pyrazin-1-yl)methyl)-quinoline]
4	COc1ccc(-c2cnc3nnn(Cc4ccc5ncccc5c4)c3n2)cc1 [Example 21, 6-((6-(4-methoxyphenyl)-1H-[1,2,3]triazolo[4,5-b]pyrazin-1-yl)methyl)-quinoline]
2	OCc1ccc(-c2cnc3nnn(Cc4ccc5ncccc5c4)c3n2)cc1 [Example 36, (4-(3-(quinolin-6-ylmethyl)-3H-[1,2,3]triazolo[4,5-b]pyrazin-5-yl)phenyl)methanol]
4	OCc1cccc(-c2cnc3nnn(Cc4ccc5ncccc5c4)c3n2)c1 [Example 37, (3-(3-(quinolin-6-ylmethyl)-3H-[1,2,3]triazolo[4,5-b]pyrazin-5-yl)phenyl)methanol]
3	NCc1ccc(-c2cnc3nnn(Cc4ccc5ncccc5c4)c3n2)cc1 [Example 38, (4-(3-(quinolin-6-ylmethyl)-3H-[1,2,3]triazolo[4,5-b]pyrazin-5-yl)phenyl)methanamine]
21	O=C(O)c1ccc(-c2cnc3nnn(Cc4ccc5ncccc5c4)c3n2)cc1Cl [Example 39, 2-chloro-4-(3-(quinolin-6-ylmethyl)-3H-[1,2,3]triazolo[4,5-b]pyrazin-5-yl)benzoic acid]
12	O=C(O)c1cc(F)cc(-c2cnc3nnn(Cc4ccc5ncccc5c4)c3n2)c1 [Example 40, 3-fluoro-5-(3-(quinolin-6-ylmethyl)-3H-[1,2,3]triazolo[4,5-b]pyrazin-5-yl)benzoic acid]
